Laboratory results as given in PubChem BioAssay AID1918993 (Molecular Pharmacology Branch, DTP, NCI, 2023).

System: 233499-124-R-J3-PDC complex spheroid growth
Assay: Anticancer human tumor 233499-124-R-J3-PDC patient-derived colon adenocarcinoma cell line growth inhibition [AhR]
Settings: for IC50: curve of first compound; for viability, T/C: stronger effect = lower value
How it was run: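 Complex tumor spheroids co-cultured with HUVEC and human MSC stroma; AhR antagonists tested in combination with standard-of-care and investigational agents. Top concentration at or near clinical Cmax (else 10 microM), half-log dilutions; growth expressed as percent test/control.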
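Further: spheroids exposed to agents for seven days before reading.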

## NS(=O)(=O)OCC1CC(n2ccc3c(NC4CCc5ccccc54)ncnc32)CC1O (stereo not given) + Cc1cncc(-c2nc(NCCc3c[nH]c4ccccc34)c3ncn(C(C)C)c3n2)c1
Second compound 0.1 µM
  IC50: 622 nM
Second compound 0.316 µM
  IC50: 523 nM
Second compound 1 µM
  IC50: 515 nM
Second compound 3.16 µM
  IC50: 203 nM
Second compound 10 µM
  IC50: < 31.6 nM
Second compound 0.1 µM, first compound 0.0316 µM
  viability, T/C: 98.7%
Second compound 0.1 µM, first compound 0.1 µM
  viability, T/C: 107%
Second compound 0.1 µM, first compound 0.316 µM
  viability, T/C: 98.2%
Second compound 0.1 µM, first compound 1 µM
  viability, T/C: 16.1%
Second compound 0.1 µM, first compound 3.16 µM
  viability, T/C: 3.52%
Second compound 0.1 µM, first compound 10 µM
  viability, T/C: 1.45%
Second compound 0.316 µM, first compound 0.0316 µM
  viability, T/C: 103%
Second compound 0.316 µM, first compound 0.1 µM
  viability, T/C: 101%
Second compound 0.316 µM, first compound 0.316 µM
  viability, T/C: 81.4%
Second compound 0.316 µM, first compound 1 µM
  viability, T/C: 9.63%
Second compound 0.316 µM, first compound 3.16 µM
  viability, T/C: 2.6%
Second compound 0.316 µM, first compound 10 µM
  viability, T/C: 2.07%
Second compound 1 µM, first compound 0.0316 µM
  viability, T/C: 102%
Second compound 1 µM, first compound 0.1 µM
  viability, T/C: 79.7%
Second compound 1 µM, first compound 0.316 µM
  viability, T/C: 83.1%
Second compound 1 µM, first compound 1 µM
  viability, T/C: 4.87%
Second compound 1 µM, first compound 3.16 µM
  viability, T/C: 3.05%
Second compound 1 µM, first compound 10 µM
  viability, T/C: 5.22%
Second compound 3.16 µM, first compound 0.0316 µM
  viability, T/C: 93.6%
Second compound 3.16 µM, first compound 0.1 µM
  viability, T/C: 74.9%
Second compound 3.16 µM, first compound 0.316 µM
  viability, T/C: 35.1%
Second compound 3.16 µM, first compound 1 µM
  viability, T/C: 3.64%
Second compound 3.16 µM, first compound 3.16 µM
  viability, T/C: 2.03%
Second compound 3.16 µM, first compound 10 µM
  viability, T/C: 1%
Second compound 10 µM, first compound 0.0316 µM
  viability, T/C: 20.5%
Second compound 10 µM, first compound 0.1 µM
  viability, T/C: 17.1%
Second compound 10 µM, first compound 0.316 µM
  viability, T/C: 23.3%
Second compound 10 µM, first compound 1 µM
  viability, T/C: 1.9%
Second compound 10 µM, first compound 3.16 µM
  viability, T/C: 1.17%
Second compound 10 µM, first compound 10 µM
  viability, T/C: 0.46%
